Results from PubChem BioAssay (NCI).
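48-hour exposure; five concentrations; linearly interpolated endpoints. At the TGI there is no net growth.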

Experiments:
Assay in all cases: DTP human tumour cell line panel, 48 h
ACHN renal = tested on: ACHN renal
M14 melanoma = tested on: M14 melanoma
NCI-H226 lung = tested on: NCI-H226 lung
NCI-H23 lung = tested on: NCI-H23 lung
OVCAR-8 ovarian = tested on: OVCAR-8 ovarian
SF-295 CNS = tested on: SF-295 CNS
SF-539 CNS = tested on: SF-539 CNS
SNB-19 CNS = tested on: SNB-19 CNS
SNB-75 CNS = tested on: SNB-75 CNS
SR leukemia = tested on: SR leukemia
SW-620 colon = tested on: SW-620 colon
UO-31 renal = tested on: UO-31 renal
A498 renal = tested on: A498 renal
BT-549 breast = tested on: BT-549 breast
HOP-92 NSCLC = tested on: HOP-92 NSCLC
NCI/ADR-RES ovarian = tested on: NCI/ADR-RES ovarian
T-47D breast = tested on: T-47D breast

Row | Structure (SMILES) | TGI (ACHN renal) [µM] | TGI (M14 melanoma) [µM] | TGI (NCI-H226 lung) [µM] | TGI (NCI-H23 lung) [µM] | TGI (OVCAR-8 ovarian) [µM] | TGI (SF-295 CNS) [µM] | TGI (SF-539 CNS) [µM] | TGI (SNB-19 CNS) [µM] | TGI (SNB-75 CNS) [µM] | TGI (SR leukemia) [µM] | TGI (SW-620 colon) [µM] | TGI (UO-31 renal) [µM] | TGI (A498 renal) [µM] | TGI (BT-549 breast) [µM] | TGI (HOP-92 NSCLC) [µM] | TGI (NCI/ADR-RES ovarian) [µM] | TGI (T-47D breast) [µM]
1 | COC(=O)CCCN(C)c1n[nH]c(N)n1 | > 100 | > 100 | > 100 | > 100 | > 100 | > 100 | > 100 | > 100 | > 100 | > 100 | > 100 | > 100 | – | – | – | – | –
2 | Cc1nc2c(n1CCO)C(=O)c1ccccc1C2=O | > 100 | 52.3 | > 100 | 30.8 | > 100 | > 100 | 88.9 | > 100 | > 100 | > 100 | > 100 | > 100 | – | – | – | – | –
3 | Cn1c2ccccc2c2c(-c3ccccc3)[n+]3ccccc3nc21 | > 100 | 34.4 | – | 54.1 | > 100 | > 100 | > 100 | > 100 | > 100 | 60.3 | 86.9 | > 100 | > 100 | 54.7 | 39.7 | > 100 | > 100
4 | COc1cc(C2c3cc4c(cc3OC(NC3CCCCC3)C2C)OCO4)cc(OC)c1OC (centres undefined) | 40.2 | 36.6 | 15.8 | 11 | 15.6 | 0.577 | 1.4 | > 100 | 0.623 | – | > 55.7 | 32.2 | 25 | 26.4 | 22.1 | 3.86 | 66.7
5 | Cc1ccc(S(=O)(=O)N2CCN(S(=O)(=O)c3ccc(C)cc3)Cc3ccccc3C2)cc1 | > 100 | > 100 | > 100 | > 100 | > 100 | > 100 | > 100 | > 100 | – | > 100 | > 100 | > 100 | – | > 100 | – | > 100 | > 100
6 | COc1cccc2c1CCc1ccccc1CC2=O | > 100 | > 100 | > 100 | > 100 | > 100 | > 100 | > 100 | > 100 | > 100 | > 100 | > 100 | > 100 | > 100 | – | > 100 | – | –
7 | COc1ccc(N2C(=O)C3c4[nH]c5ccc(OC)cc5c4C4CCC(C(C)(C)C)CC4C3C2=O)cc1 (centres undefined) | > 100 | > 100 | > 100 | 80.8 | > 100 | 32.8 | 55.1 | > 100 | 35.6 | > 100 | > 100 | > 100 | 49.3 | – | 36.4 | – | –
8 | CN(C)c1ccc(-c2cc(=O)c3cc4c(cc3[nH]2)OCO4)cc1 | > 100 | > 100 | > 100 | > 100 | > 100 | > 100 | > 100 | > 100 | > 100 | > 100 | > 100 | > 100 | > 100 | – | – | – | –
9 | COc1cc2c(cc1OCCCOc1cc(-c3ccc(F)cc3)nc(C)n1)N=C[C@@H]1CCCN1C2=O | 30.4 | 29.3 | 30.5 | 29.4 | > 100 | 31 | 48.7 | 64.4 | 49.1 | 27.4 | 64 | 38.7 | 26.4 | – | > 100 | – | > 100
10 | COc1cc(OC)cc(Oc2nc3ccccc3nc2C(=O)O)c1 | > 100 | > 100 | > 100 | > 100 | > 100 | > 100 | – | > 100 | > 100 | > 100 | > 100 | > 100 | > 100 | – | > 100 | > 100 | > 100
11 | C/C(=N\NS(=O)(=O)c1ccc(C)cc1)C(CN1CCOCC1)C(c1ccccc1)c1c(O)c2ccccc2oc1=O (centres undefined) | > 100 | > 100 | > 100 | > 100 | > 100 | > 100 | > 100 | > 100 | > 100 | 56.2 | > 100 | > 100 | > 100 | – | > 100 | – | –
12 | CNC(=O)CN(CC(=O)NC)C(=O)NC | > 100 | > 100 | > 100 | > 100 | > 100 | > 100 | > 100 | > 100 | > 100 | > 100 | > 100 | > 100 | > 100 | – | > 100 | – | –
